Measured values published in PMC12794274, “Therapeutic potential of Sheng-Xian-Tang in doxorubicin-induced chronic heart failure by regulation of phenylalanine metabolism disruption” (Chinese Medicine, 2026).
“And” between values parts separate entries of the source, which are not always exact repeats. Equal values may be shown once.

Legend:
[1] = test system: PAH activity in AML12 cells; type: cell-based
Experimental: (§1) Serum biochemical parameters including brain natriuretic peptide (BNP), creatine kinase (CK), lactate dehydrogenase (LDH), alanine aminotransferase (ALT), and aspartate aminotransferase (AST) were measured using commercial ELISA kits (Nanjing Jiancheng Bioengineering Institute, Nanjing, China) according to the manufacturer’s instructions. Superoxide dismutase (SOD), and malondialdehyde (MDA) levels in liver and heart tissues were measured using assay kits from Aifang Biotechnology (Changsha, China). Phenylalanine and tyrosine concentrations in the cell were determined using an ELISA kit from Abmart (Shanghai, China).
(§2) Mouse hepatocellular cell lines (AML12), purchased from the Shanghai Cell Bank of Chinese Academy of Sciences (Shanghai, China), were cultured in Dulbecco’s Modified Eagle Medium (DMEM) supplemented with 10% fetal bovine serum (FBS) and 2 mM L-glutamine and 1% pyruvate and maintained at 37 °C in a […], 5% CO2 incubator. Cells were seeded at a density of 5 × 10^5 cells/well in 6-well plates. […] Cells’ survival rate was detected by Cell Counting Kit-8 (CCK8) Reagents (Thermo Scientific, Singapore).

AML12 cells [2] = type: cell-based, mouse; conditions: AML12 cells, dose-dependent
Experimental: as §2

[3] = molecular target: Phenylalanine hydroxylase (PAH) protein (Homo sapiens, UniProt P00439); assay: Surface Plasmon Resonance (SPR) analysis, Biacore T200; type: binding; conditions: PAH immobilized on CM5 chip, read-out: dissociation constant (Kd)
Chain of Phenylalanine hydroxylase (PAH) protein (P00439 whole entry): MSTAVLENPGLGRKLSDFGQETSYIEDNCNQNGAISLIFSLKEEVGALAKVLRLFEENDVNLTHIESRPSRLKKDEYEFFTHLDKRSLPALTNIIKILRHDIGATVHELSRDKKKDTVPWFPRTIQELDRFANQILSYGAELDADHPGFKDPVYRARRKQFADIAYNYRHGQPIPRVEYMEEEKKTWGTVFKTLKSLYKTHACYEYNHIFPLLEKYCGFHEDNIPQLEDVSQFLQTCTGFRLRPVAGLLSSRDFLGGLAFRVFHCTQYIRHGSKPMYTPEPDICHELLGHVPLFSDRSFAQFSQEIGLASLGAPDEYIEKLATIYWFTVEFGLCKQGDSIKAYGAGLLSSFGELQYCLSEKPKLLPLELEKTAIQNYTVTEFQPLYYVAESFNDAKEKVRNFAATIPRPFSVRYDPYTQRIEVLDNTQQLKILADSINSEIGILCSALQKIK
Experimental: SPR assays were conducted using a Biacore T200 system (GE Healthcare Life Sciences, USA). Phenylalanine hydroxylase (PAH) protein was immobilized on CM5 sensor chips using an amine-coupling kit (BR100050, GE Healthcare) following standard procedures. […] Samples were injected over reference and PAH-immobilized flow cells at a flow rate of 30 μL/min, with 120 s contact time and 120 s dissociation time. Kinetic parameters were calculated using Biacore T200 evaluation software.

AML12 cells [4] = assay: AML12 cell viability (CCK8); type: cell-based
Experimental: as §2

[5] = molecular target: T1, PAH protein in AML12 cells (Mus musculus, UniProt P16331); assay: Cellular Thermal Shift Assay (CETSA); type: cell-based; conditions: neomangiferin 10 μM, 24 h, 37-72 °C, vs control group
T1 construct: endogenous in cells; host or cells: AML12 mouse hepatocytes
T1 sequence (P16331 1-453): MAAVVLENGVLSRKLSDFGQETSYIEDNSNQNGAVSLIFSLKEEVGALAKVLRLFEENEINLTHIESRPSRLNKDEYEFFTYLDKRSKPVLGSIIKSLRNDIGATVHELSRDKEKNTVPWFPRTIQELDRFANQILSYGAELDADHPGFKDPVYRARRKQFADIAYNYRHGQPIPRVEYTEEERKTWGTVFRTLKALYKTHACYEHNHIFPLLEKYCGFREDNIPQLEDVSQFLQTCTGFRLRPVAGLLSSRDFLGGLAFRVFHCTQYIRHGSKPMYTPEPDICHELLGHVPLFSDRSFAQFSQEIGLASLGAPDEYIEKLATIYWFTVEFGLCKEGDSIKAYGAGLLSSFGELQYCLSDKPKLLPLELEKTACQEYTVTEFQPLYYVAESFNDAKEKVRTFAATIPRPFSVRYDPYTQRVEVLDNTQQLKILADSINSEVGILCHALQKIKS
Experimental: AML12 cells (5 × 10^5 cells/well) in 6-well plates were divided into two groups, with 8 wells in each group. […] After 24 h, 8 samples of cells from each of the two groups were incubated at specific temperatures (37, 42, 47, 52, 57, 62, 67, and 72 °C) for 3 min and each sample was performed for western blotting analysis.

phenylalanine metabolism = assay: Phenylalanine and tyrosine levels in rat serum, liver and heart tissues (LC/MS); type: in vivo
Experimental: Phenylalanine and tyrosine in the different rat bio-samples were analyzed by LC/MS using an Agilent 1290 Ultra high-performance liquid chromatography (UHPLC) and an Agilent 6460 triple-quadrupole tandem mass spectrometer (QQQ-MS) (Agilent Inc, USA). Data were acquired by using an Agilent Zorbax SB-C18 column (3.0 × 150 mm, 5 μm) as described previously.

DOX-induced CHF rats [6] = assay: Oxidative stress in heart and liver tissue (SOD, MDA, ROS, PTGS2); type: in vivo, rat; conditions: experiment II
Experimental: Immunofluorescence staining was performed on tissue sections to detect phenylalanine hydroxylase (PAH), prostaglandin-endoperoxide synthase 2 (PTGS2), and reactive oxygen species (ROS). Primary antibodies against PAH and PTGS2 were used, while ROS was detected using the DCFH-DA probe. Nuclei were counterstained with DAPI. Images were captured using a fluorescence microscope. Serum biochemical parameters including brain natriuretic peptide (BNP), creatine kinase (CK), lactate dehydrogenase (LDH), alanine aminotransferase (ALT), and aspartate aminotransferase (AST) were measured using commercial ELISA kits (Nanjing Jiancheng Bioengineering Institute, Nanjing, China) according to the manufacturer's instructions. Superoxide dismutase (SOD), and malondialdehyde (MDA) levels in liver and heart tissues were measured using assay kits from […] Biotechnology (Changsha, China). Phenylalanine and tyrosine concentrations in the cell were determined using an ELISA kit from Abmart (Shanghai, China).

[7] = test system: phenylalanine hydroxylase (PAH); assay: PAH expression in liver and heart (western blotting, immunofluorescence); type: in vivo, rat; conditions: experiment II; DOX vs CON, co-treatments vs DOX
Experimental: Immunofluorescence staining was performed on tissue sections to detect phenylalanine hydroxylase (PAH), prostaglandin-endoperoxide synthase 2 (PTGS2), and reactive oxygen species (ROS). Primary antibodies against PAH and PTGS2 were used, while ROS was detected using the DCFH-DA probe. Nuclei were counterstained with DAPI. Images were captured using a fluorescence microscope.
Protein was extracted from liver or heart tissue samples (30 mg) using lysis buffer. Total protein concentration was determined using a BCA protein assay kit (Thermo Fisher Scientific, USA). Equal amounts of protein from each sample were separated on 10–12% SDS-PAGE gels and transferred to PVDF membranes. Membranes were blocked with quick blocking buffer for 30 min, then incubated with anti-PAH primary antibody (1:1000 dilution) overnight at 4 °C. After washing, membranes were incubated with a secondary antibody for 1 h at 37 °C. Protein bands were visualized using an Odyssey infrared imaging system (JS-1070, Shanghai Peiqing Science & Technology Co., Ltd, China). Band intensities were quantified using ImageJ software.

[8] = test system: DOX-induced chronic heart failure (CHF) rat model; assay: Echocardiography (LVEF%, LVFS%) in DOX-induced CHF rats; type: in vivo; conditions: experiment II, DOX + Phe 280 mg/kg, BH4 14 mg/kg or SXT 16 g/kg vs DOX group
Experimental: Experiment I, 48 rats were randomly divided into six groups: (1) the CON group; (2) the DOX group; (3) the DOX + enalapril (ENP, positive control, 1.8 mg/kg) group; (4) the DOX + SXT at low dose group (4 g/kg); (5) the DOX + SXT at middle dose group (8 g/kg); and […] the DOX + SXT at high dose group (16 g/kg). Except those rats in the CON group, the remaining rats received DOX at a 2.5 mg/kg per injection to a cumulative dose of 15 mg/kg. The dose of SXT for the low-dose group was set at 4 g/kg, based on the minimum human clinical daily dose (48.5 g, Table S2) converted to an equivalent rat dose using body surface area normalization (48.5 g/70 kg × 6.3 ≈ 4.4 g/kg, rounded to 4 g/kg). To evaluate a clear dose–response relationship, the medium and high doses were established at 8 g/kg and 16 g/kg, respectively, corresponding to 2 fold and 4 fold the low dose. This gradient dosing strategy is consistent with the Technical Guidelines for Pharmacodynamic Studies of Traditional Chinese Medicine and the Technical Guidelines for General Pharmacology Studies of Traditional Chinese Medicine and Natural Drugs, and is further supported by our previous study on the effective dose range of SXT in a rat model of doxorubicin-induced chronic heart failure. Heart function was monitored by echocardiography analysis at day 39, and the CHF model was considered to be successfully established when the left ventricular ejection fraction (LVEF%) values were reduced to 50%. Urinary samples were collected at five time points (0, 10, 20, 30, and 39 d), while fecal samples were collected before the rats were euthanized. Subsequently, the rats were anesthetized, and blood samples and heart and liver tissues were collected. All bio-samples were stored at − 80 °C until analysis.
Experiment II was conducted to specifically confirm the exacerbated cardiac abnormality of phenylalanine in the DOX-induced CHF rats. […] Heart function was detected as in the experiment I.
Echocardiographic (ECG) measurements were performed using M-mode tracings and continuous Doppler with a Vevo 2100 system (Visual Sonics, Toronto, ON, Canada). Rats were anesthetized with isoflurane prior to imaging. Cardiac function indices including left ventricular ejection fraction (LVEF%) and left ventricular fractional shortening (LVFS%) were measured and recorded.

heart tissues = assay: Transmission electron microscopy of heart tissue; type: in vivo, rat; conditions: experiment II; DOX alone, co-treatments vs DOX
Experimental: Freshly excised heart tissues were immediately fixed in 2.5% glutaraldehyde at 4 °C overnight. After washing with 0.1 M cacodylate trihydrate buffer, samples were post-fixed with 1% osmium tetroxide for 1 h. Tissues were then dehydrated through a graded ethanol series, incubated in acetone, and embedded in epoxy resin. Ultrathin sections were mounted on copper grids and imaged using a Hitachi HT7800 transmission electron microscope (Tokyo, Japan).

DOX-induced CHF rats [9] = assay: Serum biochemical parameters (BNP, CK, LDH, ALT, AST) by ELISA kits; type: in vivo, rat; conditions: experiment II, co-treatment vs DOX group
Experimental: as §1, with “manufacturer's” for “manufacturer’s”, “Aifang” left out

H9C2 cells = assay: Effect of phenylalanine on doxorubicin-induced H9C2 cells; type: cell-based; conditions: DOX 1 µM + Phe 18.5 µM, 24 h
Experimental: H9C2 cells were seeded in 96-well plates at a density of 5 × 10⁴ cells per well (in 100 µL medium) and allowed to adhere for 12 h. The cells were then treated for 24 h with either DOX (1 µM) alone or DOX (1 µM) in combination with Phe (18.5 µM; a concentration derived from the dosing conversion ratio used in prior rat experiments). An untreated group served as the control. Cell viability was determined by measuring the optical density at 450 nm using a microplate reader. The levels of CK, LDH, SOD, and MDA were quantified using commercial assay kits.

[10] = test system: cardiac tissues of DOX-induced CHF rats; assay: Heart histopathology (H&E, Masson) and TUNEL apoptosis detection; type: in vivo, rat; conditions: experiment II, co-treatment vs DOX group
Experimental: Cardiac tissues were fixed in 4% paraformaldehyde, embedded in paraffin, and sectioned at 4–5 μm thickness. Hematoxylin and eosin (H&E) staining was performed to assess histopathological changes, while Masson’s trichrome staining was used to evaluate cardiac fibrosis. Apoptosis in cardiac tissues was detected using a TUNEL assay kit (C1088, Beyotime, Shanghai, China).

[11] = DOX + phenylalanine vs DOX group

Kd [3]	thermal stability of PAH protein (CETSA) [5]	SMILES	PAH activity (enzyme activity assay) [1]	phenylalanine levels in AML12 cells increased by DOX ([1]; BH4 10 μM, timosaponin B-II, neomangiferin, anemarrhenasaponin I 5, 10, 20 μM, timosaponin AIII 0.1, 0.2, 0.5 μM)	DOX-induced oxidative stress (SOD, MDA) (AML12 cells [2])	non-cytoxic concentration (AML12 cells [4]) [µM]	DOX-induced AML12 cell viability (AML12 cells [4]; DOX 1 µM, 24 h, three concentrations of compound)	serum phenylalanine concentration (phenylalanine metabolism; experiment II, DOX + phenylalanine 280 mg/kg, BH4 14 mg/kg or SXT 16 g/kg) [µM]	increase in serum phenylalanine levels (phenylalanine metabolism; oral phenylalanine, compared to the DOX group) [%]	hepatic and cardiac MDA (DOX-induced CHF rats [6]; [11])	hepatic and cardiac SOD activity (DOX-induced CHF rats [6]; [11])	ROS production and PTGS2 expression in the heart (DOX-induced CHF rats [6]; co-treatment with DOX)	PAH expression in heart tissue [7]	PAH expression in liver tissue [7]	LVEF and LVFS / DOX-induced cardiac dysfunction [8]	mitochondrial ultrastructure of heart (electron microscopy) (heart tissues)	DOX-induced increases in serum levels of BNP, CK, LDH, ALT and AST (DOX-induced CHF rats [9])	DOX-induced cardiotoxicity in H9C2 cells (cell viability, SOD, CK, LDH, MDA) (H9C2 cells)	DOX-induced cardiac injury and collagen accumulation (H&E and Masson) [10]
5.75 µM and < 10 µM	better thermal stability	O=c1c2cc(O[C@@H]3O[C@H](CO)[C@@H](O)[C@H](O)[C@H]3O)c(O)cc2oc2cc(O)c([C@@H]3O[C@H](CO)[C@@H](O)[C@H](O)[C@H]3O)c(O)c12 [Neomangiferin]	significantly increase	significantly reduce	alleviated	5 to 20	alleviated												
		N[C@@H](Cc1ccccc1)C(=O)O [phenylalanine]						100.715	16.92	marked MDA elevation	pronounced suppression	upregulating	further exacerbated	further exacerbated	lower	more pronounced	largely promoted	exacerbated	exacerbated
